pIC50: −log10 of the molar value. Where a name gives a salt, the structure may show the parent alone.
target: IRAK-4 (Homo sapiens (Human), UniProt Q9NWZ3); test: In vitro IRAK-4 kinase assay; format: biochemical; settings: purified recombinant IRAK-4, 50 uM ATP, 33P peptide phosphorylation
Protocol: Purified recombinant IRAK-4 protein was incubated with 250 uM synthetic peptide ([…]) in 30 ul of kinase buffer including (20 mM MOPS pH7.2, 25 mM beta glycerol phosphate, 5 mM EGTA, 1 mM sodium orthovanadate, 1 mM DTT, 50 uM ATP, 20 mM MgCl2, 10 uCi γ-^33P, 0.1% BSA) for the indicated time. For purified recombinant IRAK-1 protein kinase assay, 50 uM ATP was used. A 25 ul aliquot of the reaction mixture was transferred on to p81 phosphocellulose squares (Upstate Biotechnology, Lake Placid, N.Y.). The assay squares were washed three times with 0.75% phosphoric acid and once with acetone. Enzyme activity was measured by determining the bound radioactivity by liquid scintillation counting.

Sequence of IRAK-4 (Q9NWZ3 whole entry, species assumed): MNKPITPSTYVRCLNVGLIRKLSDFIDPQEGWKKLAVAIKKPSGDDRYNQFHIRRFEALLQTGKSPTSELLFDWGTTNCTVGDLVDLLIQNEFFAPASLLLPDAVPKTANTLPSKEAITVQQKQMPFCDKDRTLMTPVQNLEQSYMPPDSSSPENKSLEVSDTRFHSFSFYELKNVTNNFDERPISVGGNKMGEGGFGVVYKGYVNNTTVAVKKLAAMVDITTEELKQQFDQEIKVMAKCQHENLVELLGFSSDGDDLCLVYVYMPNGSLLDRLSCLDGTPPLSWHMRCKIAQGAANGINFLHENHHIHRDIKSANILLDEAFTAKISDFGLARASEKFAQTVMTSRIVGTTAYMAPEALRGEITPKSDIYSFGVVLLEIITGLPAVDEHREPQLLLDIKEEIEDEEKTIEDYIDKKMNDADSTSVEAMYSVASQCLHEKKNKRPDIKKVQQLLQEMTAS

“2-(cis-2-Amino-cyclohexylamino)-thieno[3,2-d]pyrimidine-7-carboxylic acid quinolin-8-ylamide [Example 22]” and “2-(cis-2-amino-cyclohexylamino)-thieno[3,2-d]pyrimidine-7-carboxylic acid (5,6-dimethoxy-pyridin-2-yl)-amide [Example 27]” are within 0.2 log units of each other in pIC50: 7.55 for the first, 7.51 for the second.

Going from `CNCC1CCN(c2ccc(Cl)cc2NC(=O)c2csc3cncnc23)CC1` [Example 8, Thieno[3,2-d]pyrimidine-7-carboxylic acid [5-chloro-2-(4-methylaminomethyl-piperidin-1-yl)-phenyl]-amide] to `CC(O)CCOc1cc2ncccc2cc1NC(=O)c1csc2cncnc12` (stereo not drawn) [Example 28], the pIC50 falls from 8.10 to 7.48 (0.62 log units). The first is the more potent here.

`COc1cnc2c(C(=O)Nc3cc(Cl)ccc3N3CCC(CO)CC3)cnn2c1` [Example 29] and `NCC1CCN(c2ccc(Cl)cc2NC(=O)c2cnn3cccnc23)CC1` [Example 31, Pyrazolo[1,{tildeover (5)}alpha] pyrimidine-3-carboxylic acid [2-(4-aminomethyl-piperidin-1-yl)-5-chloro-phenyl]-amide] are within 0.2 log units of each other in pIC50: 7.48 for the first, 7.43 for the second.

`O=C(Nc1cc2cccnc2cc1OC1CCNCC1)c1cnn2cccnc12` [Example 32, Pyrazolo[1,5-alpha]pyrimidine-3-carboxylic acid [7-(piperidin-4-yloxy)-quinolin-6-yl]-amide hydrochloride] and `COc1cc2ncccc2cc1NC(=O)c1cnn2cccnc12` [Example 33, Pyrazolo[1,{tildeover (5)}alpha] pyrimidine-3-carboxylic acid (7-methoxy-quinolin-6-yl)-amide] are within 0.2 log units of each other in pIC50: 7.40 for the first, 7.37 for the second.

`Cc1cc2cc(-c3ccc(CO)cc3)c(NC(=O)c3cnn4cccnc34)cc2[nH]1` [Example 36, Pyrazolo[1,5-alpha]pyrimidine-3-carboxylic acid [5-(4-hydroxymethyl-phenyl)-2-methyl-1H-indol-6-yl]-amide] and `O=C(Nc1cc(Cl)ccc1N1CCC(CO)CC1)c1cnn2cccnc12` [Example 42, Pyrazolo[1,5-alpha]pyrimidine-3-carboxylic acid [5-chloro-2-(4-hydroxymethyl-piperidin-1-yl)-phenyl]-amide] are within 0.2 log units of each other in pIC50: 7.28 for the first, 7.14 for the second.

`NCc1ccc(-c2ccc(Cl)cc2NC(=O)c2cnn3cccnc23)cc1` [Example 46, Pyrazolo[1,{tildeover (5)}alpha] pyrimidine-3-carboxylic acid (4′-aminomethyl-4-chloro-biphenyl-2-yl)-amide] and `O=C1Cc2cc(N3CCCCC3)c(NC(=O)c3cnn4cccnc34)cc2N1` [Example 48, Pyrazolo[1,5-alpha]pyrimidine-3-carboxylic acid (2-oxo-5-piperidin-1-yl-2,3-dihydro-1H-indol-6-yl)-amide] are within 0.2 log units of each other in pIC50: 7.09 for the first, 7.01 for the second.

`COc1cc2ncccc2cc1NC(=O)c1csc2cnc(NCCCN)nc12` [Example 50, 2-(3-Amino-propylamino)-thieno[3,2-d]pyrimidine-7-carboxylic acid (7-methoxy-quinolin-6-yl)-amide] and `NC(=O)c1cnc2c(C(=O)Nc3cc(Cl)ccc3OC3CCC(O)CC3)cnn2c1` (stereo not drawn) [Example 52, Pyrazolo[1,5-alpha]pyrimidine-3,6-dicarboxylic acid 6-amide-3-{[5-chloro-2-(4-hydroxy-cyclohexyloxy)-phenyl]-amide}] are within 0.2 log units of each other in pIC50: 7.00 for the first, 6.97 for the second.

`O=C(Nc1cc2cccnc2cc1OC1CCNCC1)c1csc2cncnc12` [Example 56, Thieno[3,2-d]pyrimidine-7-carboxylic acid [7-(piperidin-4-yloxy)-quinolin-6-yl]-amide hydrochloride] and `COc1cc2ncccc2cc1NC(=O)c1csc2cnc(N(CCO)C(C)C)nc12` [Example 57, 2-[(2-Hydroxy-ethyl)-isopropyl-amino]-thieno[3,2-d]pyrimidine-7-carboxylic acid (7-methoxy-quinolin-6-yl)-amide] are the same in pIC50: 6.90 for the first, 6.90 for the second.

`O=C(Nc1cc2cccnc2cc1OCCCO)c1csc2cncnc12` [Example 58, Thieno[3,2-d]pyrimidine-7-carboxylic acid [7-(3-hydroxy-propoxy)-quinolin-6-yl]-amide] and `NCC1CCN(c2c(N)cccc2NC(=O)c2cnn3cccnc23)CC1` [Example 59, Pyrazolo[1,5-alpha]pyrimidine-3-carboxylic acid [3-amino-2-(4-aminomethyl-piperidin-1-yl)-phenyl]-amide] are the same in pIC50: 6.88 for the first, 6.88 for the second.

`O=C(Nc1cc(Cl)ccc1N1CCC(O)CC1)c1cnn2cccnc12` [Example 60, Pyrazolo[1,5-alpha]pyrimidine-3-carboxylic acid [5-chloro-2-(4-hydroxy-piperidin-1-yl)-phenyl]-amide] and `O=C(Nc1cc(Cl)ccc1OC1CCC(O)CC1)c1cnn2cc(Br)cnc12` (stereo not drawn) [Example 61, 6-Bromo-pyrazolo[1,5-alpha]pyrimidine-3-carboxylic acid [5-chloro-2-(4-hydroxy-cyclohexyloxy)-phenyl]-amide] are within 0.2 log units of each other in pIC50: 6.87 for the first, 6.86 for the second.

`Nc1cccc(NC(=O)c2cnn3cccnc23)c1N1CCCCC1` [Example 63, Pyrazolo[1,5-alpha]pyrimidine-3-carboxylic acid (3-amino-2-piperidin-1-yl-phenyl)-amide] and `O=C(Nc1cc2ccccc2cc1OC1CCC(O)C1)c1cnn2cccnc12` (stereo not drawn) [Example 65, Pyrazolo[1,5-alpha]pyrimidine-3-carboxylic acid [3-(3-hydroxy-cyclopentyloxy)-naphthalen-2-yl]-amide] are within 0.2 log units of each other in pIC50: 6.81 for the first, 6.75 for the second.

`O=C(Nc1cc(CO)ccc1N1CCCCC1)c1cnn2cccnc12` [Example 66, Pyrazolo[1,5-alpha]pyrimidine-3-carboxylic acid (5-hydroxymethyl-2-piperidin-1-yl-phenyl)-amide] and `NC(=O)c1cnc2c(C(=O)Nc3cc(Cl)ccc3O[C@H]3CC[C@@H](O)CC3)cnn2c1` [Example 67, Pyrazolo[1,5-alpha]pyrimidine-3,6-dicarboxylic acid 6-amide 3-{[5-chloro-2-(4-hydroxy-cyclohexyloxy)-phenyl]-amide}] are within 0.2 log units of each other in pIC50: 6.70 for the first, 6.69 for the second.

`O=C(Nc1cc(Cl)ccc1-c1ccc(CO)cc1)c1cnn2cccnc12` [Example 68, Pyrazolo[1,5-alpha]pyrimidine-3-carboxylic acid (4-chloro-4′-hydroxymethyl-biphenyl-2-yl)-amide] and `COc1cc2[nH]ncc2cc1NC(=O)c1cnn2cccnc12` [Example 69, Pyrazolo[1,5-alpha]pyrimidine-3-carboxylic acid (6-methoxy-1H-indazol-5-yl)-amide] are within 0.2 log units of each other in pIC50: 6.66 for the first, 6.64 for the second.

`NC1CCN(c2ccc(Cl)cc2NC(=O)c2cnn3cccnc23)CC1` [Example 70, Pyrazolo[1,{tildeover (5)}-alpha] pyrimidine-3-carboxylic acid [2-(4-amino-piperidin-1-yl)-5-chloro-phenyl]-amide] and `COc1cnc2c(C(=O)Nc3cc(Cl)ccc3N3CCC(CN)CC3)cnn2c1` [Example 71, 6-Methoxy-pyrazolo[1,5-alpha]pyrimidine-3-carboxylic acid [2-(4-aminomethyl-piperidin-1-yl)-5-chloro-phenyl]-amide] are the same in pIC50: 6.60 for the first, 6.60 for the second.

`COc1cc2cc(C)[nH]c2cc1NC(=O)c1cnn2cccnc12` [Example 72, Pyrazolo[1,5-alpha]pyrimidine-3-carboxylic acid (5-methoxy-2-methyl-1H-indol-6-yl)-amide] and `COc1cc2ncccc2cc1NC(=O)c1csc2cnc(NCC(C)C)nc12` [Example 73, 2-Isobutylamino-thieno[3,2-d]pyrimidine-7-carboxylic acid (7-methoxy-quinolin-6-yl)-amide] are within 0.2 log units of each other in pIC50: 6.59 for the first, 6.57 for the second.

`CC(C)Oc1ccc(Cl)cc1NC(=O)c1csc2cncnc12` [Example 74, Thieno[3,2-d]pyrimidine-7-carboxylic acid (5-chloro-2-isopropoxy-phenyl)-amide] and `O=C(Nc1ccc2ncccc2c1)c1csc2cnc(NCCO)nc12` [Example 75, 2-(2-Hydroxy-ethylamino)-thieno[3,2-d]pyrimidine-7-carboxylic acid quinolin-6-ylamide] are within 0.2 log units of each other in pIC50: 6.54 for the first, 6.52 for the second.

`COc1cnc2c(C(=O)Nc3cc(Cl)ccc3OC3CCC(O)CC3)cnn2c1` (stereo not drawn) [Example 76, 6-Methoxy-pyrazolo[1,5-a]pyrimidine-3-carboxylic acid [5-chloro-2-(4-hydroxy-cyclohexyloxy)-phenyl]-amide] and `O=C(Nc1cc(Cl)ccc1OC1CCC(CO)C1)c1cnn2cccnc12` (stereo not drawn) [Example 77, Pyrazolo[1,5-alpha]pyrimidine-3-carboxylic acid [5-chloro-2-(3-hydroxymethyl-cyclopentyloxy)-phenyl]-amide] are within 0.2 log units of each other in pIC50: 6.52 for the first, 6.51 for the second.

`O=C(Nc1cc(Cl)ccc1N1CCCC1)c1cnn2cccnc12` [Example 78, Pyrazolo[1,5-alpha]pyrimidine-3-carboxylic acid (5-chloro-2-pyrrolidin-1-yl-phenyl)-amide] and `O=C(Nc1cc(Cl)ccc1N1CCCCC1)c1cnn2cccnc12` [Example 79, Pyrazolo[1,5-alpha]pyrimidine-3-carboxylic acid (5-chloro-2-piperidin-1-yl-phenyl)-amide] are within 0.2 log units of each other in pIC50: 6.51 for the first, 6.50 for the second.

`O=C(Nc1cc2ccccc2cc1OCCCO)c1cnn2cccnc12` [Example 80, Pyrazolo[1,5-alpha]pyrimidine-3-carboxylic acid [3-(3-hydroxy-propoxy)-naphthalen-2-yl]-amide] and `COc1cc2ccc(CO)cc2cc1NC(=O)c1cnn2cccnc12` [Example 82, Pyrazolo[1,5-alpha]pyrimidine-3-carboxylic acid (7-hydroxymethyl-3-methoxy-naphthalen-2-yl)-amide] are within 0.2 log units of each other in pIC50: 6.49 for the first, 6.45 for the second.

For `O=C(Nc1cc(Cl)ccc1OCCCO)c1cnn2cccnc12` [Example 84, Pyrazolo[1,5-alpha]pyrimidine-3-carboxylic acid [5-chloro-2-(3-hydroxy-propoxy)-phenyl]-amide], the pIC50 was 6.37.

Reference: patent US9255110B2 (Hoffmann-La Roche Inc., priority 2010, dated 2016)
